Source: patent US12533444B2, “Mitigation of peri-implantitis by design and stability of bifunctional peptides with antimicrobial properties” (priority 2019, dated 2026)

Legend:
oral pathogens = settings: against oral pathogens; cited from earlier work
[1] = Peptide binding to titanium implant discs (percent surface coverage by fluorescence imaging); settings: FITC-labeled peptide, up to 6× theoretical footprint concentration, two minutes at 37° C., washed
Protocol: Titanium implant disc functionalization with bifunctional peptides was accomplished by incubating 100 μL of a specified fold concentration of the theoretical “footprint” concentration onto clean, sterile discs for different time periods at 37° C. for 2 minutes. Following incubation, the discs were transferred to a sterile well in a 24-well plate containing 500 μL of DI H2O and washed multiple times to remove unbound peptide. The discs were transferred to a clean glass microscope slide for imaging using a fluorescent microscope. All experiments were repeated a minimum of three times and images were recorded at 10× magnification.
A custom MatLab script was developed to determine the percent surface coverage of fluorescently labeled bifunctional peptides on the implant disc surface. The color fluorescent images were read into MatLab using the imread function. The images were converted to black and white and the total number of black and white pixels quantitated. […]
The theoretical footprint concentration of each bifunctional peptide with a multiple of the binding concentration up to 6× was determined to result in near 100% surface coverage after incubation with a titanium implant disc for only two minutes at 37° C. […] The fluorescent images were then analyzed using a MATLAB script to determine the percentage of the implant disc covered by the bifunctional peptides. […]

[2] = Serum competition binding assay with BSA on titanium implant discs; settings: presence of 0.01% BSA, 2 minutes at 37° C.
From the text: (§1) A custom MatLab script was developed to determine the percent surface coverage of fluorescently labeled bifunctional peptides on the implant disc surface. The color fluorescent images were read into MatLab using the imread function. The images were converted to black and white and the total number of black and white pixels quantitated. The number of white pixels corresponding to the fluorescently labeled peptides was divided by the total number of pixels to determine the percent surface coverage.
Prior to functionalization of sterile titanium implant discs, a solution of BSA and the bifunctional peptide was made in a sterile centrifuge tube. In a sterile 24 well plate, 100 μL of the BSA/bifunctional peptide solution was pipetted onto a titanium implant disc and incubated at 37° C. for 2 minutes. […]
The bifunctional peptide film could be applied to a new dental implant prior to implantation and subsequently during recall appointments for treatment to previously placed implants. […] Thus, the ability of the peptide film to functionalize the implant surface in the presence of serum proteins was determined by pre-mixing the peptide with varying concentrations of bovine serum albumin (BSA) followed by incubating the mixture on the titanium disc for 2 minutes at 37° C. […]

[3] = Peptide film coverage on implant discs after S. mutans challenge; settings: S. mutans challenge for 24 hours, FITC-labeled peptide
From the text: as §1
Streptococcus mutans bacteria (ATCC 700610) were cultured according to an ATCC protocol. Frozen stocks were streak plated on agar and incubated for 24 hours at 37° C. in atmosphere with 5% CO2. […]
Following the functionalization of titanium discs, they were transferred to a sterile well in a 24-well plate and 400 μL of S. mutans bacteria at a concentration of 10^3 CFU/mL was added to the wells containing the discs and incubated for 24 hours at 37° C. in atmosphere with 5% CO2. […] Experiments were repeated in triplicate and images were recorded at 10× magnification.
The binding and antimicrobial domain activities were evaluated by challenging the bifunctional peptide film applied to titanium implant discs with S. mutans bacteria for 24 hours. […]

S. mutans = assay: Propidium iodide staining of dead S. mutans bacteria on functionalized implant discs; assay type: cell-based, Streptococcus mutans; settings: discs functionalized 2 minutes at 37° C., S. mutans challenge 24 hours
Protocol: Streptococcus mutans bacteria (ATCC 700610) were cultured according to an ATCC protocol. Frozen stocks were streak plated on agar and incubated for 24 hours at 37° C. in atmosphere with 5% CO2. A single bacterial colony was used to inoculate 5 mL of Brain Heart Infusion (BHI) broth in a sterile 50 mL conical tube and incubated overnight in the same conditions. Following incubation, 1 mL of culture was added to 9 mL of fresh media and grown to mid-log phase with a final concentration of 10^5 CFU/mL.
Following the functionalization of titanium discs, they were transferred to a sterile well in a 24-well plate and 400 μL of S. mutans bacteria at a concentration of 10^3 CFU/mL was added to the wells containing the discs and incubated for 24 hours at 37° C. in atmosphere with 5% CO2. Following incubation, discs were imaged with a fluorescent microscope to visualize FTIC-labeled bifunctional peptides on the disc surface after bacterial challenge. The dead bacteria were stained with propidium iodide and imaged using a fluorescent microscope. Experiments were repeated in triplicate and images were recorded at 10× magnification.
The antimicrobial functional efficacy of TiBP-AMPA compared to TiBP-GL13K supported the design prediction. […] Representative fluorescent images and quantification of three replicate experiments are depicted in FIGS. 8A and 8B, respectively.

Row | Sequence | MIC (oral pathogens) | surface coverage (initial binding) [1] | surface coverage in competition with BSA [2] | surface coverage after bacterial challenge [3] | dead bacteria coverage (PI staining) (S. mutans)
1 | GKIIKLKASLKLL [GL13K, cationic amphipathic antimicrobial peptide domain] | low |  |  |  | 
2 | KWKLWKKIEKWGQGIGAVLKWLTTW [AMPA, cationic antimicrobial peptide domain] | low |  |  |  | 
3 | RPRENRGRERGLGSGGGGKIIKLKASLKLL [TiBP-GL13K, comparative bifunctional peptide: TiBP, GSGGG spacer, GL13K antimicrobial domain] |  | 96% | 73% | 60% | 10%
4 | RPRENRGRERGLGSGGGKWKLWKKIEKWGQGIGAVLKWLTTW [TiBP-AMPA] |  | 99% | 80% | 84% | 46%
